What was measured:
[1] = biological target: T1, recombinant human FLAP protein (Homo sapiens, UniProt P20292); test: FLAP binding assay, displacement of iodinated (125I) FLAP inhibitor, Scintillation Proximity Assay format; conditions: [125I]L-691,831 probe, membrane protein from sf9 cells; read-out: hFLAP binding IC50
T1 construct: made in house; host or cells: Sf9 insect cells (membrane fraction, 100,000 x g pellet)
T1 sequence (P20292 1-161): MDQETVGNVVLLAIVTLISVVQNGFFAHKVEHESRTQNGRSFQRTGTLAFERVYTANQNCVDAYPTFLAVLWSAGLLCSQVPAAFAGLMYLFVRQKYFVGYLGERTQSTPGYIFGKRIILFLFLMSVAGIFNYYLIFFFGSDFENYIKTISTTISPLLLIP

[2] = tested on: biomarkers for myocardial infarction risk; conditions: clinical trials; cited from earlier work
human glomerulonephritis = conditions: clinical trial; cited from earlier work
[3] = tested on: apoE/LDL-R double knockout mice; conditions: oral dosing, high-fat diet from 2 months of age to 6 months; cited from earlier work
ApoE−/−xCD4dnTβRII mice = conditions: via infusion, treated for four weeks; cited from earlier work
apoE-deficient mice = conditions: cited from earlier work

With `CCCCC/C(=C\C(=O)OC)c1ccc(-n2cncn2)c(-c2nc3cc(-c4cnc(N)nc4)ccc3n2C(C)(C)C)c1` [(E)-3-{3-[5-(2-Amino-pyrimidin-5-yl)-1-tert-butyl-1H-benzoimidazol-2-yl]-4-[1,2,4]triazol-1-yl-phenyl}-oct-2-enoic acid methyl ester] as the compound, how does the IC50 [1] read?
The IC50 was 28 nM.

Which IC50 [1] does the source give for `CCCCC/C(=C\C(=O)O)c1ccc(-n2cncn2)c(-c2nc3cc(-c4cnc(N)nc4)ccc3n2C(C)(C)C)c1` [(E)-3-{3-[5-(2-Amino-pyrimidin-5-yl)-1-tert-butyl-1H-benzoimidazol-2-yl]-4-[1,2,4]triazol-1-yl-phenyl}-oct-2-enoic acid] here?
Its IC50 is 6 nM.

With `O=C(O)[C@@H](c1ccc(OCc2ccc3ccccc3n2)cc1)C1CCCC1` [DG-031] as the compound, how does the “effect on biomarkers for myocardial infarction risk” value [2] read?
Its value is “dose-dependent suppression of several biomarkers”.

Which IC50 [1] does the source give for `CCN(CC)C(=O)Oc1ccc(-n2cncn2)c(-c2nc3cc(-c4cnc(N)nc4)ccc3n2C(C)(C)C)c1` [Diethyl-carbamic acid 3-[5-(2-amino-pyrimidin-5-yl)-1-tert-butyl-1H-benzimidazol-2-yl]-4-1,2,4-triazol-1-yl-phenyl ester] here?
The IC50 was 8.8 nM.

Which IC50 [1] does the source give for `CN(C)C(=O)Oc1ccc(-n2cncn2)c(-c2nc3cc(-c4cnc(N)nc4)ccc3n2C(C)(C)C)c1` [Dimethyl-carbamic acid 3-[5-(2-amino-pyrimidin-5-yl)-1-tert-butyl-1H-benzimidazol-2-yl]-4-1,2,4-triazol-1-yl-phenyl ester] here?
Its IC50 is 15.5 nM.

For `CCNC(=O)Oc1ccc(-n2cncn2)c(-c2nc3cc(-c4cnc(N)nc4)ccc3n2C(C)(C)C)c1` [Ethyl-carbamic acid 3-[5-(2-amino-pyrimidin-5-yl)-1-tert-butyl-1H-benzimidazol-2-yl]-4-1,2,4-triazol-1-yl-phenyl ester], which IC50 [1] is on record?
The IC50 was 1.1 nM.

Which IC50 [1] does the source give for `CC(C)NC(=O)Oc1ccc(-n2cncn2)c(-c2nc3cc(-c4cnc(N)nc4)ccc3n2C(C)(C)C)c1` [Isopropyl-carbamic acid 3-[5-(2-amino-pyrimidin-5-yl)-1-tert-butyl-1H-benzimidazol-2-yl]-4-1,2,4-triazol-1-yl-phenyl ester] here?
Its IC50 is 1.5 nM.

With `CC(C)(C)Sc1c(CC(C)(C)C(=O)O)n(Cc2ccc(Cl)cc2)c2ccc(OCc3ccc4ccccc4n3)cc12` [MK-591] as the compound, how does the effect on proteinuria (human glomerulonephritis) read?
Its effect on proteinuria is “reduce proteinuria”.

Which “decrease in plaque coverage in the aorta” value [3] does the source give for `CC(C)c1ccc2c(c1)c(SC(C)(C)C)c(CC(C)(C)C(=O)O)n2Cc1ccc(Cl)cc1` [MK-886] here?
The value was 56%.

And the “decrease in plaque coverage in the aortic root” value [3]?
Its value is 43%.

And the “decrease in plaque area in the aortic root” value (ApoE−/−xCD4dnTβRII mice)?
The value was about 40%.

For `C[C@H](C#Cc1ccc(Cc2ccc(F)cc2)s1)N(O)C(N)=O` [VIA-2291], which effect on atherosclerosis (apoE-deficient mice) is on record?
Its effect on atherosclerosis is “attenuate atherosclerosis”.

For `CC(C)(C)n1c(-c2cc(CO)ccc2-n2cncn2)nc2cc(-c3cnc(N)nc3)ccc21` [{3-[5-(2-Amino-pyrimidin-5-yl)-1-tert-butyl-1H-benzoimidazol-2-yl]-4-[1,2,4]triazol-1-yl-phenyl}-methanol], which IC50 [1] is on record?
Its IC50 is 10.4 nM.
